From ChEMBL document CHEMBL1158822, “Anthrabenzoxocinones from Streptomyces sp. as liver X receptor ligands and antibacterial agents” (J Nat Prod, 2005)
Values after ≈ are worked out from the molar mass of the structure shown.

How the values were obtained:
Staphylococcus aureus [1] = assay: Inhibition of type II fatty acid synthesis in Staphylococcus aureus using n-octanoyl-CoA and [14C]malonyl CoA substrate
Escherichia coli = assay: Antibacterial activity against lpxC mutant gene expressing Escherichia coli MB4902; format: functional
Staphylococcus aureus [2] = assay: Antibacterial activity against methicillin-resistant Staphylococcus aureus COL MB5393; format: functional
Streptococcus pneumoniae = assay: Antibacterial activity against Streptococcus pneumoniae MB212; format: functional
[3] = target: T1, Oxysterols receptor LXR-alpha (Homo sapiens, UniProt Q13133); assay: Displacement of [3H2]F3-methyl AA from LXRalpha by scintillation proximity assay
T1 sequence (Q13133 whole entry): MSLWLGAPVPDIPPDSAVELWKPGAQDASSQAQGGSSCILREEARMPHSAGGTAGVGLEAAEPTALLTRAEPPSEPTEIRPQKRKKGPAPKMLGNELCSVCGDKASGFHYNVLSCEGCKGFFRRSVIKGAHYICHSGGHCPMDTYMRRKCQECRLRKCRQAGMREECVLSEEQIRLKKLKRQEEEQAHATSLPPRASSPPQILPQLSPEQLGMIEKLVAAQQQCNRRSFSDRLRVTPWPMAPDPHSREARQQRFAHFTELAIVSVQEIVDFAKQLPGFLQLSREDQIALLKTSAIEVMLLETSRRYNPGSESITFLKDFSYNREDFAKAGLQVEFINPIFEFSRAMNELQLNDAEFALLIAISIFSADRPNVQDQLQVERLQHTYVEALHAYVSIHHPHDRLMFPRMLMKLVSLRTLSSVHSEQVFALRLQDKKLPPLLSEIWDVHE

Staphylococcus aureus [4] = assay: Inhibition of DNA biosynthesis in Staphylococcus aureus
Enterococcus faecium = assay: Antibacterial activity against vancomycin-resistant Enterococcus faecium CL5791; format: functional
Staphylococcus aureus [5] = assay: Inhibition of RNA biosynthesis in Staphylococcus aureus
Staphylococcus aureus [6] = assay: Inhibition of phospholipid biosynthesis in Staphylococcus aureus
[7] = target: T2, Oxysterols receptor LXR-beta (Homo sapiens, UniProt P55055); assay: Displacement of [3H2]F3-methyl AA from LXRbeta by scintillation proximity assay
T2 sequence (P55055 whole entry): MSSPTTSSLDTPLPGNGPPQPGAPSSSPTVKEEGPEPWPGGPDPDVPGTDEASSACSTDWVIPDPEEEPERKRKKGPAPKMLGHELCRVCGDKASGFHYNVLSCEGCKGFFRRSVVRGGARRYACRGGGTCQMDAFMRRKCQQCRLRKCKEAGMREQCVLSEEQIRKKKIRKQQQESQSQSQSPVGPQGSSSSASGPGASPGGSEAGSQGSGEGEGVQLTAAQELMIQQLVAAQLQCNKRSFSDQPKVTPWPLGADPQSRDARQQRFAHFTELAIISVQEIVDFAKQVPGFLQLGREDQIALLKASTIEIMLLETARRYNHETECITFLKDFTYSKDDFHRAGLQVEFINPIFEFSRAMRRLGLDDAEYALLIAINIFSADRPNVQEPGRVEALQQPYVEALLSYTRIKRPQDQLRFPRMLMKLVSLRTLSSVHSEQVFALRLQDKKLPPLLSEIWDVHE

Staphylococcus aureus [8] = assay: Inhibition of protein biosynthesis in Staphylococcus aureus
Staphylococcus aureus [9] = assay: Antibacterial activity against methicillin-sensitive Staphylococcus aureus MB2685; format: functional
Enterococcus faecalis = assay: Antibacterial activity against vancomycin-sensitive Enterococcus faecalis CL8516; format: functional

| Compound | IC50 (Staphylococcus aureus [1]) | MIC (Escherichia coli) | MIC (Staphylococcus aureus [2]) | MIC (Streptococcus pneumoniae) | IC50 [3] | IC50 (Staphylococcus aureus [4]) | MIC (Enterococcus faecium) | IC50 (Staphylococcus aureus [5]) | IC50 (Staphylococcus aureus [6]) | IC50 [7] | IC50 (Staphylococcus aureus [8]) | MIC (Staphylococcus aureus [9]) | MIC (Enterococcus faecalis) |
| --- | --- | --- | --- | --- | --- | --- | --- | --- | --- | --- | --- | --- | --- |
| COc1cc(C)c2c(c1)O[C@@]1(C)Cc3cc4c(c(O)c3[C@@H]2O1)C(=O)c1c(O)c(Cl)c(O)c(Cl)c1C4(C)C | 11.4 µg/mL (≈ 21 µM) | 0.5 µg/mL (≈ 0.92 µM) | 1 µg/mL (≈ 1.84 µM) | 1 µg/mL (≈ 1.84 µM) | 10 µM | 0.21 µg/mL (≈ 0.386 µM) | 2 µg/mL (≈ 3.68 µM) | 0.21 µg/mL (≈ 0.386 µM) | 0.21 µg/mL (≈ 0.386 µM) | > 15 µM | 0.21 µg/mL (≈ 0.386 µM) | 0.5 µg/mL (≈ 0.92 µM) | 1 µg/mL (≈ 1.84 µM) |
| Cc1cc(O)cc2c1[C@H]1O[C@](C)(Cc3cc4c(c(O)c31)C(=O)c1c(O)cc(O)cc1C4(C)C)O2 | 288 µg/mL (≈ 625 µM) | 2 µg/mL (≈ 4.34 µM) | 2 µg/mL (≈ 4.34 µM) | 1 µg/mL (≈ 2.17 µM) | – | 1 µg/mL (≈ 2.17 µM) | 2 µg/mL (≈ 4.34 µM) | 1 µg/mL (≈ 2.17 µM) | 1 µg/mL (≈ 2.17 µM) | – | 1 µg/mL (≈ 2.17 µM) | 2 µg/mL (≈ 4.34 µM) | 0.5 µg/mL (≈ 1.09 µM) |
| O=C(N[C@H](CO)[C@H](O)c1ccc([N+](=O)[O-])cc1)C(Cl)Cl [CHLORAMPHENICOL] | > 250 µg/mL | 1.56 µg/mL (≈ 4.83 µM) | 6.25 µg/mL (≈ 19.3 µM) | 1.56 µg/mL (≈ 4.83 µM) | – | – | 6.25 µg/mL (≈ 19.3 µM) | – | – | – | – | 6.25 µg/mL (≈ 19.3 µM) | 1.56 µg/mL (≈ 4.83 µM) |
| Cc1cc(O)cc2c1[C@@H]1O[C@@](C)(Cc3cc4c(c(O)c31)C(=O)c1c(O)cc(O)cc1C4(C)C)O2 | 245 µg/mL (≈ 532 µM) | 1 µg/mL (≈ 2.17 µM) | 0.5 µg/mL (≈ 1.09 µM) | 1 µg/mL (≈ 2.17 µM) | – | – | 0.5 µg/mL (≈ 1.09 µM) | – | – | – | – | 1 µg/mL (≈ 2.17 µM) | 1 µg/mL (≈ 2.17 µM) |
| CO[C@H]1/C=C/O[C@@]2(C)Oc3c(C)c(O)c4c(O)c(c(/C=N/N5CCN(C)CC5)c(O)c4c3C2=O)NC(=O)/C(C)=C\C=C\[C@H](C)[C@H](O)[C@@H](C)[C@@H](O)[C@@H](C)[C@H](OC(C)=O)[C@@H]1C [RIFAMPIN] | > 250 µg/mL | 0.02 µg/mL (≈ 0.0243 µM) | 0.002 µg/mL (≈ 0.00243 µM) | 0.004 µg/mL (≈ 0.00486 µM) | – | – | 0.04 µg/mL (≈ 0.0486 µM) | – | – | – | – | 0.002 µg/mL (≈ 0.00243 µM) | 0.008 µg/mL (≈ 0.00972 µM) |
